Experimental data published in patent US10702526B2, “Inhibitors of immune checkpoint modulators and related methods” (eFFECTOR Therapeutics, Inc., priority 2015, dated 2020).
“Also recorded” adds a separate entry of the source.

Experiments:
[1] = system: primary T cells; test: Primary T cell viability (fixable dead cell stain); assay type: cell-based; conditions: T cells activated with anti-CD3/anti-CD28 beads
Experimental: About 3×10^5 T cells were activated using anti-CD3/anti-CD28 magnetic beads as per manufacturer's protocol (Dynabeads®, Invitrogen, Carlsbad, Calif.). Briefly, a ratio of fresh primary T cells to beads used to activate the T cells was 1:1 (for every 80,000 T cells, 2 μl of beads were added). Test cells were treated simultaneously with various concentrations of MNK-specific inhibitor Compound 107 (0.01, 0.1, 1, 3 and 10 μM). After 48 hours, culture supernatants were harvested and examined via sandwich ELISA for the presence of IL-2 using human IL-2 ELISA DuoSet® (R&D Systems, Minneapolis, Minn.). […] After fixation, cells were washed twice with flow buffer and re-suspended in flow buffer and assessed for fluorescence using BD Accuri C6 cytometer. Data were analyzed using the C6 cytometer software (BD Biosciences, San Jose, Calif.).

[2] = system: PD-L1; test: PD-L1 expression in tumor cell lines (Western blot); assay type: cell-based, human; conditions: MDA-MB-231, HBL-1, A549, MDA-MB-361, AMO-1; 0.01-10 μM, 48 hours, vs DMSO

SMILES: Cc1cc(Nc2cc(N)ncn2)c(=O)n2c1C(=O)NC21CCCCC1.Cl [Compound 107]
- T cell viability (percentage of dead cells) [1]: no effect on T cell viability; also recorded: unaffected
- expression of PD-L1 [2]: reduced in a dose dependent manner
